# Patent US8765754B2, “Pyrrolotriazine compounds” (Locus Pharmaceuticals, Inc., priority 2009, dated 2014)
# Legend:
# Btk = biological target: T1, Btk (Homo sapiens, UniProt Q06187); assay: Btk in vitro radioassay (33P-ATP, Poly(Glu,Tyr)); type: biochemical; conditions: Btk inhibition; reported after Biological Example 2; read-out: IC50 over Btk
# T1 construct: purchased Invitrogen
# Experimental: The diluted solution (1 μl) of the compound of the present invention in DMSO was added to 96-well assay plates. Additionally, Btk kinase solution (39 μL) composed of Btk (1.3 nM, Invitrogen), Tris (12.5 mM; pH7.5), Triton X-100 (0.01%), glycerol (5%), MgCl2 (10 mM), EGTA (1 mM), glycerol 2-phosphate (5 mM), DTT (2 mM) and sodium orthovanadate (0.5 mM) was added to 96-well assay plate. The solution was pre-incubated for 20 minutes at 30° C. Then ATP/peptide solution (10 μL) composed of Poly (Glu, Tyr) (0.20 mg/mL, Sigma) and ^33P-ATP (47 μM, PerkinElmer) was added. After incubating at 30° C. for 12 minutes, the reaction was stopped by adding 10 μL of 0.6M phosphoric acid to each well. The each reaction from the 96-well assay plate was transferred to 96-well filter plate. The reaction mixture was analyzed on the radioactive survey equipment (TopCount NXT HTS; PerkinElmer) to read count efficiency.
# The inhibition rate (%) of the compound of the present invention was calculated with the following formula: Inhibition rate(%)={1−(counts−B100)/(B0−B100)}×100 B0: average counts for 0% inhibition control (i.e., no compound) B100: average counts for 100% inhibition control (i.e., no enzyme)
# The value of 50% inhibition rate (IC50) for the compounds of the present invention was determined from inhibition curve based on inhibition rate at each concentration of the compound of the present invention.
# Lck = Lck (Homo sapiens, UniProt P06239); assay: Z'-lyte kinase assay (FRET), inhibitory activity to other kinases: Lck; type: biochemical; conditions: selectivity ratio, Biological Example 1 and 2
# Chain of Lck (P06239 whole entry): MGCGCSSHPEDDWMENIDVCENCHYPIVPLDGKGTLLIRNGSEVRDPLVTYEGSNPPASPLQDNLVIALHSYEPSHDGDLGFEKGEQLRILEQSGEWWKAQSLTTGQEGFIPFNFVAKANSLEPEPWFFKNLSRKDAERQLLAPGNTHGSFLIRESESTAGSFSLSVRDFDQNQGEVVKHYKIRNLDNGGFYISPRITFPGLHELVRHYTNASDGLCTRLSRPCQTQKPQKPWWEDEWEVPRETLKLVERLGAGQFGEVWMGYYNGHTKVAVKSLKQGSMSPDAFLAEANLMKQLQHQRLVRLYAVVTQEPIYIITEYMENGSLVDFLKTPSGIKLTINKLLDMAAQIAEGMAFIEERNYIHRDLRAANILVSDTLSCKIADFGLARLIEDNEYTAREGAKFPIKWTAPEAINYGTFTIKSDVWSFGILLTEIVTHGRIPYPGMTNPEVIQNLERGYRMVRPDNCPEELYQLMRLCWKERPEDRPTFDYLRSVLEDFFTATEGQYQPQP
# Experimental: (§1) Btk tyrosine phosphorylation reaction was carried out using Z′-lyte kinase assay kit—Tyr 1 peptide (Invitrogen) consisting of the following reagent (Tyr 1 peptide, Thy 1 phospho-peptide, 5× kinase buffer, ATP, development regent B, development buffer, and stop reagent) and Btk. Btk activity was determined using fluorescence resonance energy transfer (FRET) method.
# The diluted solution (5 μl) of the compound of the present invention in dimethyl sulfoxide (DMSO; Sigma) was added to 96-well assay plates. Additionally, the peptide/kinase solution (10 μl) composed of DL-Dithiothreitol (DTT; 2 mM), Tyr 1 peptide (2 μM), kinase buffer and Btk (5 nM, Invitrogen) was added to the assay plates and the reaction solution was pre-incubated for 20 minutes at 25° C. […] The fluorescence emission of each well was measured on a fluorescence plate reader at a wavelength of 445 nm and 520 nm. The phospholyration ratio was determined by the emission rate of the fluorescence at 445 nm to 520 nm according to manufacturer's instruction.
# The inhibition rate (%) of the compounds of the present invention was calculated with the following formula: Inhibition rate(%)=1−{(AX−AB)/(AC−AB)}×100 AX: phospholyration ratio at addition of the compound of the present invention AB: phospholyration ratio at blank AC: phospholyration ratio at only addition of DMSO […]
# LynA = LynA (Homo sapiens, UniProt P07948); assay: Z'-lyte kinase assay (FRET), inhibitory activity to other kinases: LynA; type: biochemical; conditions: selectivity ratio, Biological Example 1 and 2
# Chain of LynA (P07948 whole entry): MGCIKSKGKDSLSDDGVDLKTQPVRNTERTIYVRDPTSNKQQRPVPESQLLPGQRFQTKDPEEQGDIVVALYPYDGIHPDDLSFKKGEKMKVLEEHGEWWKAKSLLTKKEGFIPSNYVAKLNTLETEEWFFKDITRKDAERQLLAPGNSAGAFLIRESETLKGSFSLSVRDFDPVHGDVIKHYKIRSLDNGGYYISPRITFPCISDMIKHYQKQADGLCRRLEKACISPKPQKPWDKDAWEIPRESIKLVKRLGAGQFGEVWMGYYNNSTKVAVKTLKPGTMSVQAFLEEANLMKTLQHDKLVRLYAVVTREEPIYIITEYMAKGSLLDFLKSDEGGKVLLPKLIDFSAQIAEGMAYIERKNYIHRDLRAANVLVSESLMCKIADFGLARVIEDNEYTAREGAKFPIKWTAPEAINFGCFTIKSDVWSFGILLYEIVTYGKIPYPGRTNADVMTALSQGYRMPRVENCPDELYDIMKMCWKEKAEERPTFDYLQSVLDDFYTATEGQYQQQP
# Experimental: as §1
# (§2) The diluted solution (5 μl) of the compound of the present invention in dimethyl sulfoxide (DMSO; Sigma) was added to 96-well assay plates. Additionally, the peptide/kinase solution (10 μl) composed of DL-Dithiothreitol (DTT; 2 mM), Tyr 1 peptide (2 μM), kinase buffer and Btk (5 nM, Invitrogen) was added to the assay plates and the reaction solution was pre-incubated for 20 minutes at 25° C. Then, the ATP solution (5 μl) composed of adenosine triphosphate (ATP; 36 μM) and kinase buffer was added and the reaction solution was incubated for 1 hour at 25° C. After the incubation, the development solution B (10 μl) composed of development reagent B and development buffer was added and the reaction solution was incubated for 1 hour at 25° C. The stop solution (10 μl) was added to each well to arrest the enzyme reaction. The fluorescence emission of each well was measured on a fluorescence plate reader at a wavelength of 445 nm and 520 nm. The phospholyration ratio was determined by the emission rate of the fluorescence at 445 nm to 520 nm according to manufacturer's instruction.
# (§3) The inhibition rate (%) of the compounds of the present invention was calculated with the following formula: Inhibition rate(%)=1−{(AX−AB)/(AC−AB)}×100 AX: phospholyration ratio at addition of the compound of the present invention AB: phospholyration ratio at blank AC: phospholyration ratio at only addition of DMSO
# (§4) The value of 50% inhibition rate (IC50) for the compound of the present invention was determined from inhibition curve based on inhibition rate at each concentration of the compound of the present invention.
# (§5) Research for inhibitory activity to other kinases (such as Lck, Fyn, LynA) was performed in similar procedure above described.
# Fyn = Fyn (Homo sapiens, UniProt P06241); assay: Z'-lyte kinase assay (FRET), inhibitory activity to other kinases: Fyn; type: biochemical; conditions: selectivity ratio, Biological Example 1 and 2
# Chain of Fyn (P06241 whole entry): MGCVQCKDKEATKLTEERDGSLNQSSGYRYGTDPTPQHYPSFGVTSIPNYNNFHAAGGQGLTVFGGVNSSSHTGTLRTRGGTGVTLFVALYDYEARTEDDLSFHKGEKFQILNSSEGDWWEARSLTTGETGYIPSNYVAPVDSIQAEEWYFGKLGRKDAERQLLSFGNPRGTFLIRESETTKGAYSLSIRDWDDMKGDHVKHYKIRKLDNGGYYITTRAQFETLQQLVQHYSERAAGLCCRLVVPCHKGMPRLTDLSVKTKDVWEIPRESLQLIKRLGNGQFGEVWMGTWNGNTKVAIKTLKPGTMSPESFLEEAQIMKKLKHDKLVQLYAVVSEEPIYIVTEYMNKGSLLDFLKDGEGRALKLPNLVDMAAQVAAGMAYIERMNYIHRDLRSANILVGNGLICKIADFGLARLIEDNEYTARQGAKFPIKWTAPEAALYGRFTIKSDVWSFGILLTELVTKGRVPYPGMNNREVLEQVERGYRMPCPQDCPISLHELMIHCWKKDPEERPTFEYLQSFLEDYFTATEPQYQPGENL
# Experimental: as §1, §2, §3, §4, §5
# mouse splenocytes = assay: B cell activation assay using mouse splenocytes (anti-IgM stimulated CD69 in CD19 positive cells, FACS); type: cell-based; conditions: Splenocyte; anti-mouse IgM stimulation 6 hours; CD69 MFI in CD19 positive cells
# Experimental: Splenocytes collected from C57B1/6 or Balb/c mice were suspended in RPMI 1640 (Invitrogen), supplemented with 10% fetal bovine serum (FBS). The diluted solution (1 μl) of the compound of the present invention and the suspension of the mouse splenocytes (49 μl) were added to 96-well plate and incubated at 37° C. for 60 min. Cells were stimulated with 10 μl of anti-mouse IgM (Jackson Immunoresearch). Samples were stimulated at 37° C. for 6 hours, 5% CO2 and treated with 10 μl/well Fc block (BD Biosciences) for 15 min on ice in the dark. The diluted solution (10 μl) of antibody (1:2:2 mix of each, Allphycocyanin (APC)-labeled anti-mouse CD3e, Phycoerythrin (PE)-labeled anti-mouse CD19 and Fluorescein Isothiocyanate (FITC) labeled anti-mouse CD69) was added to 96-well collection plate. Samples were transferred to the 96-well collection plate and incubated for 30 min on ice in the dark. Samples were treated with Lyse/Fix solution (1.6 ml/well, BD biosciences) at 37° C. in collection plates and were incubated for at 37° C. for 15 min. Cells were collected by centrifugation at 2000 rpm for 10 min repeatedly, resuspended in stain buffer (BD Biosciences) and analyzed by FACS to determine mean fluorescence intensity (MFI) of CD69 in the CD19 positive cell population. […]
# [1] = Pharmacokinetic profile in rats; type: in vivo; conditions: rat, plasma, fasted male Sprague-Dawley rats
# Experimental: Using fasted male Sprague-Dawley rats (250-400 gram; Hilltop Labs), the plasma concentration of the compound of the present invention after intravenous administration at a dose of 1 mg/kg and the plasma concentration after oral gavage administration at a dose of 2 mg/kg were measured. The blood samples (˜0.25 mL) was collected from a rat jugular vein under an unanesthetized condition 1, 5, 15, and 30 minutes, and 1, 2, 4, 8, 12 and 24 hours after intravenous administration, and 5, 15 and 30 minutes, and 1, 1.5, 2, 4, 8, 12 and 24 hours after oral administration. Then the blood samples placed into chilled tubes containing sodium heparin and kept on ice until centrifugation. The samples were centrifuged at a temperature of 4° C. at 13,000 rpm for 5 minutes and the supernatant was collected as plasma. The concentration of the compound in plasma was measured with LC/MS/MS (Acquity HPLC coupled with a quattromicro mass spectrometer, Waters Corp.). From the obtained plasma concentration, an area under the curve (AUC, ng·h/ml), a maximum plasma concentration.(Cmax, μg/mL) and a clearance (CL, mL/hr/kg) were calculated. In addition, Bioavailability (B.A.) of the compound of the present invention was calculated from AUC in oral administration and AUC in intravenous administration.
# [2] = oral 2 mg/kg / i.v. 1 mg/kg study, route of the value not given
# T1 sequence (Q06187 whole entry): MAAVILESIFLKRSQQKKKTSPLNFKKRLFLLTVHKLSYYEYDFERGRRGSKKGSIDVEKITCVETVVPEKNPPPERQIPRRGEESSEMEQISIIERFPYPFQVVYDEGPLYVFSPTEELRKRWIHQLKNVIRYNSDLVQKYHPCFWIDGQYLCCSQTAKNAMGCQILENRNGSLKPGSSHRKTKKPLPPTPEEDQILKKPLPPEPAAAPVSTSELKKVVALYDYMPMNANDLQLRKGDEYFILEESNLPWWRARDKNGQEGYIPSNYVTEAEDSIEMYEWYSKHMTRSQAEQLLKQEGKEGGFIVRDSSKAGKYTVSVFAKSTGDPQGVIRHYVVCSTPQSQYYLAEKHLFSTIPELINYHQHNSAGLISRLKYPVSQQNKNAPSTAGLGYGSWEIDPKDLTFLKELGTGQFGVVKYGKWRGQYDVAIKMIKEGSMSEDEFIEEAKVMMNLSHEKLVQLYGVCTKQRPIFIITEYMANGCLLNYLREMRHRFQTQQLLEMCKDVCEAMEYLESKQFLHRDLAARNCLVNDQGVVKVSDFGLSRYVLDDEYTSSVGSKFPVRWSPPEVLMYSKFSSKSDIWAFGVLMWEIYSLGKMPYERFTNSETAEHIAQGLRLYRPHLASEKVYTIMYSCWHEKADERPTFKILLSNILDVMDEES
structure (smiles),measurement,setting,value
"COc1cccc(-c2c(CCCN(C)C)c(-c3ccc(Oc4ccccc4)cc3)c3c(N)ncnn23)c1 [Example 16(1), 6-(3-(dimethylamino)propyl)-7-(3-methoxyphenyl)-5-(4-phenoxyphenyl)pyrrolo[2,1-f][1,2,4]triazin-4-amine]",IC50,Btk,5.8 nM
"COc1cccc(-c2c(CCCN3CCCC3)c(-c3ccc(Oc4ccccc4)cc3)c3c(N)ncnn23)c1 [Example 16(2), 7-(3-methoxyphenyl)-5-(4-phenoxyphenyl)-6-(3-(pyrrolidin-1-yl)propyl)pyrrolo[2,1-f][1,2,4]triazin-4-amine]",IC50,Btk,65 nM
"COc1cccc(-c2c(CCCN3CCCC3)c(-c3ccc(Oc4ccc(Cl)c(Cl)c4)c(OC)c3)c3c(N)ncnn23)c1 [Example 16(3), 5-(4-(3,4-dichlorophenoxy)-3-methoxyphenyl)-7-(3-methoxyphenyl)-6-(3-(pyrrolidin-1-yl)propyl)pyrrolo[2,1-f][1,2,4]triazin-4-amine]",IC50,Btk,12 nM
same,Lck[IC50]/Btk[IC50],Lck,40
same,LynA[IC50]/Btk[IC50],LynA,78
same,Fyn[IC50]/Btk[IC50],Fyn,917
"CCN(CC)CC(=O)N1CCC(c2c(CCCN3CCCC3)c(-c3ccc(Oc4cccc(Cl)c4)c(OC)c3)c3c(N)ncnn23)CC1 [Example 21(1), 1-(4-(4-amino-5-(4-(3-chlorophenoxy)-3-methoxyphenyl)-6-(3-(pyrrolidin-1-yl)propyl)pyrrolo[2,1-f][1,2,4]triazin-7-yl)piperidin-1-yl)-2-(diethylamino)ethanone]",IC50,Btk,22 nM
"CCN(CC)CC(=O)N1CCC(c2c(CCCN3CCCC3)c(-c3ccc(Oc4ccc(Cl)c(Cl)c4)c(OC)c3)c3c(N)ncnn23)CC1 [Example 21, 1-(4-(4-amino-5-(4-(3,4-dichlorophenoxy)-3-methoxyphenyl)-6-(3-(pyrrolidin-1-yl)propyl)pyrrolo[2,1-f][1,2,4]triazin-7-yl)piperidin-1-yl)-2-(diethylamino)ethanone]",IC50,Btk,16 nM
"COc1cc(-c2c(C3CCNCC3)c(C3CCCC3)n3ncnc(N)c23)ccc1Oc1ccc(Cl)c(Cl)c1 [Example 25(1), 7-cyclopentyl-5-(4-(3,4-dichlorophenoxy)-3-methoxyphenyl)-6-(piperidin-4-yl)pyrrolo[2,1-f][1,2,4]triazin-4-amine]",IC50,Btk,62 nM
"C=CC(=O)N1CCCC(c2c(Cl)c(-c3ccc(Oc4ccc(Cl)c(Cl)c4)c(OC)c3)c3c(N)ncnn23)C1 (stereo not drawn) [Example 32(1), 1-(3-(4-amino-6-chloro-5-(4-(3,4-dichlorophenoxy)-3-methoxyphenyl)pyrrolo[2,1-f][1,2,4]triazin-7-yl)piperidin-1-yl)prop-2-en-1-one]",IC50,Btk,2 nM
same,LynA[IC50]/Btk[IC50],LynA,10000
same,Fyn[IC50]/Btk[IC50],Fyn,>10000
"C=CC(=O)N1CCCC(c2c(Cl)c(-c3ccc(Oc4cccc(Cl)c4)c(OC)c3)c3c(N)ncnn23)C1 (stereo not drawn) [Example 32, 1-(3-(4-amino-6-chloro-5-(4-(3-chlorophenoxy)-3-methoxyphenyl)pyrrolo[2,1-f][1,2,4]triazin-7-yl)piperidin-1-yl)prop-2-en-1-one]",IC50,Btk,2 nM
same,Lck[IC50]/Btk[IC50],Lck,161
same,LynA[IC50]/Btk[IC50],LynA,1389
same,Fyn[IC50]/Btk[IC50],Fyn,7222
same,IC50,mouse splenocytes,130 nM
same,clearance,"[1]; intravenous, oral 2 mg/kg / i.v. 1 mg/kg study",17.8 mL/day/kg
same,bioavailability,"[1]; from AUC oral 2 mg/kg and AUC i.v. 1 mg/kg, read-out: B.A. (Bioavailability)",24%
same,AUC,[1]; [2],652 ng·h/mL
same,Cmax,[1]; [2],227 ng/mL
